Experiment in all cases: Competition-based peptide-HLA class I binding assay
Experiment [1] addresses HLA-A*03:01 (Homo sapiens, UniProt P04439). Conditions: concentration that inhibits 50% binding of fluorescently-labeled standard peptide […], read-out: In vitro HLA binding affinity (IC50, nM), peptide-HLA binding assay, A*03:01. How it is done:
(§1) Competition-based peptide-HLA class I binding assays were performed as previously described ([60]). […] The standard peptides were […] for HLA-A^*02:01 and […] for HLA-A^*03:01 and HLA-A^*11:01.

Experiment [2] has as its target HLA-A*11:01 (Homo sapiens, UniProt P04439, A114D/D185E/E176A/F33Y/L180Q/S129P/T187R). The conditions noted are these: concentration that inhibits 50% binding of fluorescently-labeled standard peptide […], read-out: In vitro HLA binding affinity (IC50, nM), peptide-HLA binding assay, A*11:01. On the procedure: as §1
The target of experiment [3] is HLA-A*02:01 (Homo sapiens, UniProt P04439, D140Y/D185E/D98H/E176V/E277Q/G131W/G231S/I119V/I121R/I166T/I218V/L300P/L318F/N151K/N90K/P208A/P217A/Q86G/Q94H/R138H/R169H/T345S). The conditions noted are these: concentration that inhibits 50% binding of fluorescently-labeled standard peptide […], read-out: In vitro HLA binding affinity (IC50, nM), peptide-HLA binding assay, A*02:01. How it is done:
Competition-based peptide-HLA class I binding assays were performed as previously described ([60]).

Ends that are not written are not given here.

With KIGDFGLATEK, the IC50 in experiment [1] stood at 672 nM; in experiment [2], 45 nM.

On to KIGDFGLATV, for which the half-inhibitory concentration (IC50) in experiment [3] turned out to be 40 nM.

KIGDFGLATE [KIGDFGLATE]: the half-maximal inhibitory concentration (IC50) in experiment [3] came out at 86900 nM.

Regarding KIGDFGLATVK, the IC50 turned out to be 415 nM in experiment [1] and 32 nM in experiment [2].

Broadly, the IC50 is the concentration needed to halve the response being measured.

These data come from PMC6967030, “Apparent Lack of BRAF^V600E Derived HLA Class I Presented Neoantigens Hampers Neoplastic Cell Targeting by CD8^+ T Cells in Langerhans Cell Histiocytosis” (Frontiers in Immunology, 2020).
